According to patent US11135234B2, “Effective aminoglycoside antibiotic for multidrug-resistant bacteria” (MICROBIAL CHEMISTRY RESEARCH FOUNDATION, priority 2015, dated 2021):
Values after ≈ are worked out from the molar mass of the structure shown.

How the values were obtained:
S. aureus RN4220 = assay: MIC, agar plate dilution method, S. aureus RN4220; type: cell-based, Staphylococcus aureus; conditions: for MIC: Staphylococcus aureus, RN4220, S. aureus RN4220, Sensitive bacterium, read-out: minimal inhibitory concentration (MIC)
Procedure, shortened: (§1)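 Agar plate dilution per Japan Society of Chemotherapy standard; read-out = MIC in μg/mL.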

S. aureus RN4220/pMS520 = assay: MIC, agar plate dilution method, S. aureus RN4220/pMS520; type: cell-based, Staphylococcus aureus; conditions: for MIC: Staphylococcus aureus, MRSA, read-out: minimal inhibitory concentration (MIC), S. aureus RN4220/pMS520, MRSA
Procedure, shortened: as §1

S. aureus MF490 = assay: MIC, agar plate dilution method, S. aureus MF490; type: cell-based, Staphylococcus aureus; conditions: for MIC: Staphylococcus aureus, MRSA, read-out: minimal inhibitory concentration (MIC)
Procedure, shortened: as §1

E. faecium ATCC19434 = assay: MIC, agar plate dilution method, E. faecium ATCC19434; type: cell-based, Enterococcus faecium; conditions: for MIC: Enterococcus faecium, ATCC19434, E. faecium ATCC19434, read-out: minimal inhibitory concentration (MIC)
Procedure, shortened: as §1

E. coli JM109/pMW218 = assay: MIC, agar plate dilution method, E. coli JM109/pMW218; type: cell-based, Escherichia coli; conditions: for MIC: Escherichia coli, JM109/PMW218, E. coli JM109/pMW218, Sensitive bacterium, read-out: minimal inhibitory concentration (MIC)
Procedure, shortened: as §1

[1] = test system: K. pneumoniae ATCC BAA-1705; assay: MIC, agar plate dilution method, K. pneumoniae ATCC BAA-1705; type: cell-based, Klebsiella pneumoniae; conditions: for minimal inhibitory concentration (MIC): K. pneumoniae ATCC BAA-1705, KPC-producing strain; for MIC: Klebsiella pneumoniae, ATCCBAA1705, K. pneumoniae ATCC BAA-1705, KPC-producing strain, read-out: minimal inhibitory concentration (MIC)
Procedure, shortened: as §1

[2] = test system: K. pneumoniae ATCC BAA-2146; assay: MIC, agar plate dilution method, K. pneumoniae ATCC BAA-2146; type: cell-based, Klebsiella pneumoniae; conditions: for MIC: Klebsiella pneumoniae, ATCCBAA2146, K. pneumoniae ATCC BAA-2146, NDM-producing strain, read-out: minimal inhibitory concentration (MIC)
Procedure, shortened: as §1

[3] = test system: A. baumannii ATCC BAA-1710; assay: MIC, agar plate dilution method, A. baumannii ATCC BAA-1710; type: cell-based, Acinetobacter baumannii; conditions: for MIC: Acinetobacter baumannii, ATCCBAA1710, A. baumannii ATCC BAA-1710, MDRA, read-out: minimal inhibitory concentration (MIC)
Procedure, shortened: as §1

S. marcescens TH-0447 = assay: MIC, agar plate dilution method, S. marcescens TH-0447; type: cell-based, Serratia marcescens; conditions: for MIC: Serratia marcescens, TH0447, S. marcescens TH-0447, AMK-resistant, read-out: minimal inhibitory concentration (MIC)
Procedure, shortened: as §1

S. marcescens GN6944 = assay: MIC, agar plate dilution method, S. marcescens GN6944; type: cell-based, Serratia marcescens; conditions: S. marcescens GN6944, GM-resistant; for MIC: Serratia marcescens, read-out: minimal inhibitory concentration (MIC)
Procedure, shortened: as §1

P. aeruginosa PAO1 = assay: MIC, agar plate dilution method, P. aeruginosa PAO1; type: cell-based, Pseudomonas aeruginosa; conditions: for minimal inhibitory concentration (MIC): P. aeruginosa PAO1, Sensitive bacterium; for MIC: Pseudomonas aeruginosa, PAO1, P. aeruginosa PAO1, Sensitive bacterium, read-out: minimal inhibitory concentration (MIC)
Procedure, shortened: as §1

P. aeruginosa PAO1/GN315 = assay: MIC, agar plate dilution method, P. aeruginosa PAO1/GN315; type: cell-based, Pseudomonas aeruginosa; conditions: for MIC: Pseudomonas aeruginosa, read-out: minimal inhibitory concentration (MIC), P. aeruginosa PAO1/GN315, AMK-resistant
Procedure, shortened: as §1

P. aeruginosa MSC17707 = assay: MIC, agar plate dilution method, P. aeruginosa MSC17707; type: cell-based, Pseudomonas aeruginosa; conditions: for MIC: Pseudomonas aeruginosa, MSC17707, P. aeruginosa MSC17707, AMK-resistant, read-out: minimal inhibitory concentration (MIC)
Procedure, shortened: as §1

P. aeruginosa MSC01035 = assay: MIC, agar plate dilution method, P. aeruginosa MSC01035; type: cell-based, Pseudomonas aeruginosa; conditions: P. aeruginosa MSC01035, ABK-resistant; for MIC: Pseudomonas aeruginosa, read-out: minimal inhibitory concentration (MIC)
Procedure, shortened: as §1

CNC1C(O[C@H]2OC(CO)[C@@H](NC(=O)[C@H](C)N)[C@H](O)C2O)O[C@H]2CC(N)[C@@H](O[C@@H]3C(N)C[C@@H](N)C(O)[C@H]3O)OC2C1O (stereo partly drawn) [Compound V1-k, 4″-N-(L-alanyl)-5-epiapramycin]
MIC (S. aureus RN4220): 4 µg/mL (≈ 6.55 µM)
MIC (S. aureus RN4220/pMS520): 4 µg/mL (≈ 6.55 µM)
MIC (S. aureus MF490): 8 µg/mL (≈ 13.1 µM)
MIC (E. faecium ATCC19434): 16 µg/mL (≈ 26.2 µM)
MIC (E. coli JM109/pMW218): 1 µg/mL (≈ 1.64 µM)
minimal inhibitory concentration (MIC) [1]: 1 µg/mL (≈ 1.64 µM)
MIC [2]: 1 µg/mL (≈ 1.64 µM)
MIC [3]: 8 µg/mL (≈ 13.1 µM)
MIC (S. marcescens TH-0447): 16 µg/mL (≈ 26.2 µM)
MIC (S. marcescens GN6944): 8 µg/mL (≈ 13.1 µM)
minimal inhibitory concentration (MIC) (P. aeruginosa PAO1): 4 µg/mL (≈ 6.55 µM)
MIC (P. aeruginosa PAO1/GN315): 4 µg/mL (≈ 6.55 µM)
MIC (P. aeruginosa MSC17707): 4 µg/mL (≈ 6.55 µM)
MIC (P. aeruginosa MSC01035): 8 µg/mL (≈ 13.1 µM)

CNC1C(OC2OC(CO)C(NC(=O)C(N)CO)C(O)C2O)OC2CC(N)C(OC3C(N)CC(N)C(O)C3O)OC2C1O [Compound V1-l, 5-epi-4″-N-(L-seryl)apramycin]
minimal inhibitory concentration (MIC) (S. aureus RN4220; S. aureus RN4220, Sensitive bacterium): 4 µg/mL (≈ 6.38 µM)
minimal inhibitory concentration (MIC) (S. aureus RN4220/pMS520; S. aureus RN4220/pMS520, MRSA): 4 µg/mL (≈ 6.38 µM)
minimal inhibitory concentration (MIC) (S. aureus MF490; S. aureus MF490, MRSA): 8 µg/mL (≈ 12.8 µM)
minimal inhibitory concentration (MIC) (E. faecium ATCC19434; E. faecium ATCC19434): 32 µg/mL (≈ 51.1 µM)
minimal inhibitory concentration (MIC) (E. coli JM109/pMW218; E. coli JM109/pMW218, Sensitive bacterium): 1 µg/mL (≈ 1.6 µM)
minimal inhibitory concentration (MIC) [1]: 1 µg/mL (≈ 1.6 µM)
minimal inhibitory concentration (MIC) ([2]; K. pneumoniae ATCC BAA-2146, NDM-producing strain): 1 µg/mL (≈ 1.6 µM)
minimal inhibitory concentration (MIC) ([3]; A. baumannii ATCC BAA-1710, MDRA): 8 µg/mL (≈ 12.8 µM)
minimal inhibitory concentration (MIC) (S. marcescens TH-0447; S. marcescens TH-0447, AMK-resistant): 8 µg/mL (≈ 12.8 µM)
minimal inhibitory concentration (MIC) (S. marcescens GN6944): 8 µg/mL (≈ 12.8 µM)
minimal inhibitory concentration (MIC) (P. aeruginosa PAO1): 4 µg/mL (≈ 6.38 µM)
minimal inhibitory concentration (MIC) (P. aeruginosa PAO1/GN315; P. aeruginosa PAO1/GN315, AMK-resistant): 4 µg/mL (≈ 6.38 µM)
minimal inhibitory concentration (MIC) (P. aeruginosa MSC17707; P. aeruginosa MSC17707, AMK-resistant): 4 µg/mL (≈ 6.38 µM)
minimal inhibitory concentration (MIC) (P. aeruginosa MSC01035): 8 µg/mL (≈ 12.8 µM)

CNC1C(O[C@H]2OC(CO)[C@@H](NC(=O)CCN)[C@H](O)C2O)O[C@H]2C[C@H](N)[C@@H](O[C@@H]3C(N)C[C@@H](N)C(O)[C@H]3O)OC2C1O (stereo partly drawn) [Compound V1-m, 4″-N-(β-alanyl)-5-epiapramycin]
MIC (S. aureus RN4220): 2 µg/mL (≈ 3.28 µM)
MIC (S. aureus RN4220/pMS520): 2 µg/mL (≈ 3.28 µM)
MIC (S. aureus MF490): 8 µg/mL (≈ 13.1 µM)
MIC (E. faecium ATCC19434): 16 µg/mL (≈ 26.2 µM)
MIC (E. coli JM109/pMW218): 1 µg/mL (≈ 1.64 µM)
MIC [1]: 1 µg/mL (≈ 1.64 µM)
MIC [2]: 1 µg/mL (≈ 1.64 µM)
MIC [3]: 8 µg/mL (≈ 13.1 µM)
MIC (S. marcescens TH-0447): 8 µg/mL (≈ 13.1 µM)
MIC (S. marcescens GN6944): 8 µg/mL (≈ 13.1 µM)
MIC (P. aeruginosa PAO1): 2 µg/mL (≈ 3.28 µM)
MIC (P. aeruginosa PAO1/GN315): 4 µg/mL (≈ 6.55 µM)
MIC (P. aeruginosa MSC17707): 2 µg/mL (≈ 3.28 µM)
MIC (P. aeruginosa MSC01035): 4 µg/mL (≈ 6.55 µM)

CNC1C(O[C@H]2OC(CO)[C@@H](NC(=O)[C@@H](O)CN)[C@H](O)C2O)O[C@H]2C[C@H](N)[C@@H](O[C@@H]3C(N)C[C@@H](N)C(O)[C@H]3O)OC2C1O (stereo partly drawn) [Compound V1-n, 5-epi-4″-N-(L-isoseryl)apramycin]
MIC (S. aureus RN4220): 2 µg/mL (≈ 3.19 µM)
MIC (S. aureus RN4220/pMS520): 2 µg/mL (≈ 3.19 µM)
MIC (S. aureus MF490): 8 µg/mL (≈ 12.8 µM)
MIC (E. faecium ATCC19434): 16 µg/mL (≈ 25.5 µM)
MIC (E. coli JM109/pMW218): 0.5 µg/mL (≈ 0.798 µM)
MIC [1]: 1 µg/mL (≈ 1.6 µM)
MIC [2]: 1 µg/mL (≈ 1.6 µM)
MIC [3]: 8 µg/mL (≈ 12.8 µM)
MIC (S. marcescens TH-0447): 8 µg/mL (≈ 12.8 µM)
MIC (S. marcescens GN6944): 8 µg/mL (≈ 12.8 µM)
MIC (P. aeruginosa PAO1): 2 µg/mL (≈ 3.19 µM)
MIC (P. aeruginosa PAO1/GN315): 4 µg/mL (≈ 6.38 µM)
MIC (P. aeruginosa MSC17707): 2 µg/mL (≈ 3.19 µM)
MIC (P. aeruginosa MSC01035): 4 µg/mL (≈ 6.38 µM)

CNC1C(O[C@H]2OC(CO)[C@@H](NC(=O)CN)[C@H](O)C2O)O[C@H]2C[C@H](N)[C@@H](O[C@@H]3C(N)C[C@@H](N)C[C@H]3O)OC2C1O (stereo partly drawn) [Compound V1-o, 6-deoxy-5-epi-4″-N-glycylapramycin]
MIC (S. aureus RN4220): 1 µg/mL (≈ 1.72 µM)
MIC (S. aureus RN4220/pMS520): 1 µg/mL (≈ 1.72 µM)
MIC (S. aureus MF490): 4 µg/mL (≈ 6.89 µM)
MIC (E. faecium ATCC19434): 8 µg/mL (≈ 13.8 µM)
MIC (E. coli JM109/pMW218): 0.5 µg/mL (≈ 0.861 µM)
MIC [1]: 1 µg/mL (≈ 1.72 µM)
MIC [2]: 1 µg/mL (≈ 1.72 µM)
MIC [3]: 4 µg/mL (≈ 6.89 µM)
MIC (S. marcescens TH-0447): 8 µg/mL (≈ 13.8 µM)
MIC (S. marcescens GN6944): 4 µg/mL (≈ 6.89 µM)
MIC (P. aeruginosa PAO1): 2 µg/mL (≈ 3.44 µM)
MIC (P. aeruginosa PAO1/GN315): 2 µg/mL (≈ 3.44 µM)
MIC (P. aeruginosa MSC17707): 2 µg/mL (≈ 3.44 µM)
MIC (P. aeruginosa MSC01035): 4 µg/mL (≈ 6.89 µM)
